One compound from US9809553B2, “Isoquinoline compounds, a process for their preparation, and pharmaceutical compositions containing them” (LES LABORATOIRES SERVIER, priority 2014, dated 2017) can be followed below.

SMILES strings stand for the structures. Where a name gives a salt, the structure may show the parent alone. Read-outs that look alike come from different tables or passages of the source.

Experiment [1] relates to arterial pressure of spontaneously hypertensive rats (SHR). As to the kind of experiment: Evaluation on the arterial pressure in spontaneously hypertensive rats (SHR), telemetry. Format: in vivo. The conditions noted are these: SHR rat, maximum change of arterial pressure relative to basal. The procedure:
The effect of the ROCK inhibitors was tested by the reduction of the arterial pressure (AP) that they induce in spontaneously hypertensive rats (SHR) after intravenous (i.v.) and/or oral administration. In summary, the SHRs were anaesthetised with 2% isoflurane, and a telemetry probe (PAC40, Data Science International) was implanted in the abdominal aorta to record the AP and a polyethylene catheter was implanted in the jugular vein for the i.v. administration. After recovery from the surgery (2 to 3 weeks), the AP was recorded continuously for 24 hours after administration of the ROCK inhibitors at doses of 1, 3, 10 and 30 mg/kg by the i.v. route and/or by the oral route. The effect on the AP was expressed as the percentage reduction relative to the basal arterial pressure before administration of the product.

Another experiment concerns the target human ROCK1 (Homo sapiens, UniProt Q13464). The experiment is described as follows: ROCK1 enzymatic test (LANCE, phosphorylation of Ulight-RRRSLLE (PLK) substrate). The format is biochemical. The settings on record: human recombinant enzyme, 1 μM ATP, 50 nM Ulight-RRRSLLE (PLK) substrate, 30 minutes at ambient temperature; read-out: ROCK1(h), IC50. The protocol: Evaluation of the effects of compounds on human ROCK1 activity quantified by measuring the phosphorylation of the substrate Ulight-RRRSLLE (PLK) using a human recombinant enzyme and the LANCE® detection method.
The test compound, the reference compound or water (control) is mixed with the enzyme (8.2 ng) in a buffer comprising 40 mM Hepes/Tris (pH 7.4), 0.8 mM EGTA/Tris, 8 mM MgCl2, 1.6 mM DTT and 0.008% Tween 20.
The reaction is then started by adding 50 nM of Ulight-RRRSLLE (PLK) substrate and 1 μM of ATP, and the mixture is incubated for 30 minutes at ambient temperature. For the basal control measurements, the enzyme is excluded from the reaction mixture.
After the incubation, the reaction is stopped by adding 13 mM of EDTA. After 5 minutes, the anti-phospho-PLK antibody labelled with europium chelate is added. After a further 60 minutes, the fluorescence transfer is measured at lex=337 nm, lem=620 nm and lem=665 nm using a microplate reader (Envision, Perkin Elmer). The enzymatic activity is determined by dividing the signal measured at 665 nm by that measured at 620 nm (ratio). The results are expressed in the form of a percentage inhibition of the control enzymatic activity. The standard reference inhibition compound is staurosporine, which is tested in each experiment at several concentrations in order to obtain an inhibition curve on the basis of which the value of the IC50 (concentration that induces 50% inhibition) is calculated.
A general note: TR-FRET usually uses a lanthanide donor and a delayed reading to cut background.

Experiment [2] deals with aortic segments of the rat (contraction induced by PHE). The experiment is described as follows: Functional test (rat aorta): vascular reactivity on aortic rings without endothelium contracted with phenylephrine. The conditions noted are these: aortic rings without endothelium contracted with PHE 10^-6 M, read-out: Relaxation (rat aorta + PHE), IC50. The text has this: Functional Test (Rat Aorta) Study of Vascular Reactivity on Aortic Segments of the Rat. After anaesthesia of the animal, the thoracic aorta is removed and immediately placed in a physiological saline solution (PSS). The proximal thoracic aorta is cleaned of adherent conjunctive tissue and 4 aortic rings (3-4 mm) are cut. The endothelium is removed mechanically without damaging the smooth muscle cells. The rings without endothelium are placed in PSS medium in isolated organ baths maintained at 37° C. in the presence of carbogen. The isometric tension of the rings is recorded by means of a force sensor. At their optimum tension, the rings are subjected to an equilibration period during which the physiological medium is replaced regularly. The preparations are then contracted twice by means of a hyperpotassic solution (KCl 60 mM), each of the 2 contractions being followed by successive washings in order to return to the original tension. The absence of endothelium is verified after contraction by an al-adrenergic receptor agonist, phenylephrine (PHE, 10^−6M), followed by the addition of carbachol (10^−5M), a muscarinic receptor agonist, which induces a relaxation only in the presence of endothelium. The rings are then washed regularly with PSS for 60 minutes in order to remove the pharmacological agents. The rings are recontracted with PHE (10^−6M) and then, after stabilisation of the contraction, the product or its solvent is added in cumulative concentrations, 5 concentrations are tested: 10M^−8, 10^−7M, 10^−6M, 10M^−5 and 3×10^−5M (if the product is dissolved in DMSO) or 10^−4M (if H2O is the solvent of the product). The contractile response is obtained in milligrams (mg). The results are expressed by the mean±SEM of the contractile responses obtained on at least 2 rats. The variations in tension of each product are calculated as a percentage of the maximum contraction induced by PHE before the product is added, according to the formula: % contraction B(t)=[×(mg) tension(compound)B(t)/y (mg) maximum tension (PHE)B]×100. The concentration-response curves obtained are analysed and allow the IC50 value of each product to be determined (IC50: concentration of product necessary to inhibit 50% of the maximum contraction induced by PHE), the estimation of the IC50 value of the concentration-response curves being obtained by non-linear regression.

human ROCK1, sequence (Q13464 whole entry): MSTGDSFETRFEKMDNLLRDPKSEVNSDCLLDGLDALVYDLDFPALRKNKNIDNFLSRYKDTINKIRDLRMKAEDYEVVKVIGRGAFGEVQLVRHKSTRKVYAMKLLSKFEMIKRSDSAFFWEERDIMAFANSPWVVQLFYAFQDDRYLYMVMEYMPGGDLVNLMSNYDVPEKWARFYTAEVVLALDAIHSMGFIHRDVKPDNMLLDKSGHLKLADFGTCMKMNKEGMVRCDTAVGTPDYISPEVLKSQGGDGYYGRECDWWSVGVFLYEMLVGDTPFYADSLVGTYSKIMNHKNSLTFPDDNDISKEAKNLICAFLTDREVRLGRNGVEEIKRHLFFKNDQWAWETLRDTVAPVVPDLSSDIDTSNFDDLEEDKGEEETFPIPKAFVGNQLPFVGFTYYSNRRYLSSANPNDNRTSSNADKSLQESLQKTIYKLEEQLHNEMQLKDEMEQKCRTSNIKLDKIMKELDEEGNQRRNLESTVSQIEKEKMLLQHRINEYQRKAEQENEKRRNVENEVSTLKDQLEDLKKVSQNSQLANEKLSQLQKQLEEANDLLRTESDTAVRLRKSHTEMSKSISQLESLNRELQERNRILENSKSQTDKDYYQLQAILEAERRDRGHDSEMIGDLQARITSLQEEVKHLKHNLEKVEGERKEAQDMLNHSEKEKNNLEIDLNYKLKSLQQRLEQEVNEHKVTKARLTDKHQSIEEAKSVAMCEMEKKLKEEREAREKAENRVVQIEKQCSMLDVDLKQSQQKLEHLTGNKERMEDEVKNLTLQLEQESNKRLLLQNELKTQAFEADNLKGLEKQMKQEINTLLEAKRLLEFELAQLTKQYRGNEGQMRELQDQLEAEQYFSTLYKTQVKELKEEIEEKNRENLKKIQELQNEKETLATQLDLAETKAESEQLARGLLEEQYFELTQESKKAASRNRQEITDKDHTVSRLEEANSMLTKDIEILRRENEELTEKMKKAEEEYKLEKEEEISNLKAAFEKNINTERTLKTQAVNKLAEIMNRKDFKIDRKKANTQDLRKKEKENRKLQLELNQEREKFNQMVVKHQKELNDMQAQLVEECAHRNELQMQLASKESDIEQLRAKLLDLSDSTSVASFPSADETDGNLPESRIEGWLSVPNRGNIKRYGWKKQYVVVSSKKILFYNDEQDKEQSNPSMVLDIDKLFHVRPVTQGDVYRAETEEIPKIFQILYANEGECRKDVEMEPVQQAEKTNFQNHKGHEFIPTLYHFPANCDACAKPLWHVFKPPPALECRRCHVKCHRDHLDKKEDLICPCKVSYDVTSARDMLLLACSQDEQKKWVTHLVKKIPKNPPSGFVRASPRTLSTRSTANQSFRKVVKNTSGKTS

As usually defined, the IC50 is the concentration that gives 50% inhibition. With `Cc1cc([C@@H](C)N)ccc1C(=O)c1cccc2c(=O)[nH]ccc12` [Product P47, 5-{4-[(1R)-1-Aminoethyl]-2-methylbenzoyl}isoquinolin-1(2H)-one hydrochloride], the change in vivo at 3 mg/kg was -62.7% in experiment [1] (IV 3 mg/kg, read-out: SHR rat ΔAP % max, IV 3 mg/kg) and -26.4% in experiment [1] (PO 3 mg/kg, read-out: SHR rat ΔAP % max, PO 3 mg/kg). Further, the figures for the IC50 (on human ROCK1; in experiment [2]) were 6.78 nM and 40 nM, respectively.
